Test results reported in patent US12364709B2, “Bioavailable poly amines” (AMINEX THERAPEUTICS, INC., priority 2016, dated 2025).
Like-named read-outs stand apart in the source and are kept apart here.

Assay: Pharmacokinetic analysis of AMXT 1501 salt forms, single oral tablet dose
Assay type: in vivo, beagle dogs
Conditions: for Cmax / Tmax / half-life / AUC(0-t): beagle, dog, plasma, po
From the text: Following dose administration all the animals had serial blood collections. Table 18 provides pharmacokinetic data obtained using the various salt forms of AMXT 1501 following single PO dosing to dogs. In Table 18, Group 1 received the free base form of AMXT 1501, Group 2 received the dicholate salt of AMXT 1501, Group 3 received the phosphate salt form of AMXT 1501, and Group 4 received the dicaprate salt form of AMXT 1501. […] In Table 18, SD refers to standard deviation and CV % refers to coefficient of variability.

[1] = single PO dose 16.0 mg/kg (2 x 80 mg tablets), plasma AMXT 1501, 16 mg/kg
[2] = single PO dose 16.0 mg/kg, plasma AMXT 1501, 16 mg/kg
[3] = single PO dose 16.0 mg/kg, t=24 hours, plasma AMXT 1501, 16 mg/kg

CCCCCCCCCCCCCCCC(=O)NCCCC[C@@H](N)C(=O)NCCCNCCCCNCCCN [AMXT 1501 dicaprate]
Cmax (16 mg/kg, single PO dose 16.0 mg/kg (2 x 80 mg tablets), plasma AMXT 1501, read-out: Cmax Mean): 276 ng/mL
Cmax (16 mg/kg, single PO dose 16.0 mg/kg (2 x 80 mg tablets), plasma AMXT 1501, read-out: Cmax Median): 278 ng/mL
Tmax (16 mg/kg, single PO dose 16.0 mg/kg (2 x 80 mg tablets), plasma AMXT 1501, read-out: Tmax Mean): 6 h
Tmax (16 mg/kg, single PO dose 16.0 mg/kg (2 x 80 mg tablets), plasma AMXT 1501, read-out: Tmax Median): 6 h
half-life (16 mg/kg, single PO dose 16.0 mg/kg, plasma AMXT 1501, read-out: t1/2 Mean (converted)): 14 h
half-life (16 mg/kg, single PO dose 16.0 mg/kg, plasma AMXT 1501, read-out: t1/2 Median (converted)): 13.4 h
AUC(0-t) (16 mg/kg, single PO dose 16.0 mg/kg, t=24 hours, plasma AMXT 1501, read-out: AUC0-t Mean): 6580 ng·h/mL
AUC(0-t) (16 mg/kg, single PO dose 16.0 mg/kg, t=24 hours, plasma AMXT 1501, read-out: AUC0-t Median): 6370 ng·h/mL
Cmax Max. [1]: 349 ng/mL
Cmax Min. [1]: 201 ng/mL
t1/2 Max. [2]: 16.2 h
t1/2 Min. [2]: 12.4 h
AUC0-t Max. [3]: 8640 ng·h/mL
AUC0-t Min. [3]: 4710 ng·h/mL
inter-animal consistency of plasma AMXT 1501 levels (single oral delivery, FIGS. 5A-5D): much more consistent inter-animal blood levels
